Where two headings read alike, the source gives them in different places.
Target: human P2X7 receptor (Homo sapiens, UniProt Q99572, R270H/Y155H)
Test: Evaluation of human P2X7 receptor inhibitory activity (Yo-Pro uptake, BzATP stimulation, FLIPR TETRA)
Format: cell-based
In short: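 1321N1 cells stably expressing human P2X7 (T606C/G952A SNP variant), in HBSS buffer pH 7.4-7.5 with Yo-Pro, stimulated with BzATP; compound added 8 min after agonist. Fluorescence followed for 20 min on FLIPR; max-minus-min change gave % inhibition, IC50 by logistic fit.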

[1] = antagonistic activity for the human P2X7 receptor, read-out: IC50
[2] = 1321N1 cells stably expressing human P2X7 receptor, BzATP stimulation, Yo-Pro uptake, read-out: IC50 (antagonistic activity for the human P2X7 receptor)

Compound | IC50 [1] [µM] | IC50 [2] [µM]
COc1cn(Cc2ccc(F)c(Cl)c2)c(Nc2cc(Cl)ccc2C)nc1=O [Compound I-0594] | 0.01 to 0.1 | –
COc1cn(Cc2ccc(F)c(Cl)c2)c(Nc2ccccc2Cc2ccccn2)nc1=O [Compound I-0595] | < 0.01 | –
COc1cn(Cc2cc(F)c(F)c(F)c2)c(Nc2ccc(OC(F)(F)F)cc2C)nc1=O [Compound I-0596] | 0.01 to 0.1 | –
COc1cn(Cc2cc(F)cc(F)c2)c(Nc2cc3[nH]ncc3cc2C)nc1=O [Compound I-0597] | – | 0.02
COc1cn(Cc2cc(F)cc(F)c2)c(Nc2cccc3[nH]c(C)cc23)nc1=O [Compound I-0598] | 0.01 to 0.1 | –
COc1cn(Cc2cc(F)cc(F)c2)c(Nc2cc(-c3nnco3)ccc2C)nc1=O [Compound I-0599] | 0.01 to 0.1 | –
COc1cn(Cc2cc(F)cc(F)c2)c(Nc2cc(CO)c(C)cc2C)nc1=O [Compound I-0600] | < 0.01 | –
COc1cc(C)cc(Nc2nc(=O)c(OC)cn2Cc2cc(F)c(F)c(F)c2)c1C [Compound I-0601] | < 0.01 | –
COc1cn(Cc2cc(F)c(F)c(F)c2)c(Nc2cccc3[nH]c(=O)ccc23)nc1=O [Compound I-0602] | 0.1 to 0.5 | –
COc1cn(Cc2cc(F)c(F)c(F)c2)c(Nc2cccc3c(=O)[nH]ccc23)nc1=O [Compound I-0603] | 0.01 to 0.1 | –
COc1cn(Cc2ccc(F)c(F)c2)c(Nc2cc(-c3ncco3)ccc2C)nc1=O [Compound I-0604] | < 0.01 | –
COc1cn(Cc2ccc(F)c(F)c2)c(Nc2cc(S(C)(=O)=O)c(C)cc2C)nc1=O [Compound I-0605] | 0.01 to 0.1 | –
COc1cn(Cc2ccc(F)c(F)c2)c(Nc2cccc(SC)c2C)nc1=O [Compound I-0606] | < 0.01 | –
COc1cn(Cc2cc(F)c(F)c(F)c2)c(Nc2cc(C)c(OC(F)F)cc2C)nc1=O [Compound I-0607] | < 0.01 | –
COc1ccc(Nc2nc(=O)c(OC)cn2Cc2cc(F)cc(Cl)c2)c(C)c1 [Compound I-0608] | 0.01 to 0.1 | –
COc1cn(Cc2cc(F)cc(Cl)c2)c(Nc2ccc(OC(F)(F)F)cc2C)nc1=O [Compound I-0609] | 0.1 to 0.5 | –
COc1c(C)ccc(Nc2nc(=O)c(OC)cn2Cc2cc(F)cc(Cl)c2)c1C [Compound I-0610] | 0.01 to 0.1 | –
CCc1cc(Cl)ccc1Nc1nc(=O)c(OC)cn1Cc1cc(F)cc(Cl)c1 [Compound I-0611] | 0.01 to 0.1 | –
COc1cn(Cc2cc(F)cc(Cl)c2)c(Nc2ccc(N3CCOCC3)cc2C)nc1=O [Compound I-0612] | 0.1 to 0.5 | –
COc1cn(Cc2cc(F)cc(Cl)c2)c(Nc2ccc(OC(F)F)cc2C)nc1=O [Compound I-0613] | 0.01 to 0.1 | –

Compound | IC50 [1] [µM] | IC50 [2] [µM]
COc1cc(C)c(Nc2nc(=O)c(OC)cn2Cc2cccc(F)c2)cc1Cl [Compound I-0614] | < 0.01 | –
COc1cc(C)c(Nc2nc(=O)c(OC)cn2Cc2ccc(F)cc2)cc1Cl [Compound I-0615] | < 0.01 | –
COc1cc(C)c(Nc2nc(=O)c(OC)cn2Cc2ccc(F)c(F)c2)cc1Cl [Compound I-0616] | < 0.01 | –
COc1cc(C)c(Nc2nc(=O)c(OC)cn2Cc2cc(F)cc(F)c2)cc1Cl [Compound I-0617] | < 0.01 | –
COc1cn(Cc2ccccc2)c(Nc2cc3[nH]ccc3cc2C)nc1=O [Compound I-0618] | – | 0.007
COc1cn(Cc2ccc(F)c(Cl)c2)c(Nc2cc3[nH]ccc3cc2C)nc1=O [Compound I-0619] | < 0.01 | –
COc1cn(Cc2cc(F)cc(F)c2)c(Nc2cc3[nH]ccc3cc2C)nc1=O [Compound I-0620] | < 0.01 | –
CCc1ccc(Br)cc1Nc1nc(=O)c(OC)cn1Cc1ccccc1 [Compound I-0621] | < 0.01 | –
COc1cn(Cc2ccccc2)c(Nc2ccc(N(C)C)cc2C)nc1=O [Compound I-0622] | 0.01 to 0.1 | –
COc1cc(C)c(Nc2nc(=O)c(OC)cn2Cc2cc(F)c(F)c(F)c2)cc1OC [Compound I-0623] | < 0.01 | –
CCOc1cc(C)c(Nc2nc(=O)c(OC)cn2Cc2cc(F)c(F)c(F)c2)cc1C [Compound I-0624] | < 0.01 | –
COc1ccc(C)c(Nc2nc(=O)c(OC)cn2Cc2cc(F)c(F)c(F)c2)c1 [Compound I-0625] | < 0.01 | –
COc1cn(Cc2cc(F)c(F)c(F)c2)c(Nc2cccc3sccc23)nc1=O [Compound I-0626] | – | 0.004
COc1ccc(C)c(Nc2nc(=O)c(OC)cn2Cc2cccc(Cl)c2)c1 [Compound I-0627] | 0.01 to 0.1 | –
COc1cn(Cc2ccccc2)c(Nc2ccc(OC(F)(F)F)cc2C)nc1=O [Compound I-0628] | 0.1 to 0.5 | –
COc1cn(Cc2cc(F)cc(F)c2)c(Nc2ccc(OC(F)(F)F)cc2C)nc1=O [Compound I-0629] | 0.01 to 0.1 | –
CCc1cc(Br)ccc1Nc1nc(=O)c(OC)cn1Cc1cc(F)cc(F)c1 [Compound I-0630] | < 0.01 | –
CCc1cc(Br)ccc1Nc1nc(=O)c(OC)cn1Cc1ccc(F)c(Cl)c1 [Compound I-0631] | 0.01 to 0.1 | –
COc1cc(C)c(Nc2nc(=O)c(OC)cn2Cc2cc(F)c(F)c(F)c2)cc1C [Compound I-0632] | < 0.01 | –

Source: patent publication US10774051B2, “6-membered heterocyclic derivatives and pharmaceutical composition comprising the same” (Shionogi & Co., Ltd., priority 2015, dated 2020)
